The target in assay [1] is EGFR WT (Homo sapiens, UniProt P00533). As to the kind of experiment: HTRF-based EGFR biochemical assay, WT. Conditions: 100 μM ATP, enzyme 5 nM. For orientation: TR-FRET usually uses a lanthanide donor and a delayed reading to cut background.
Assay [2] concerns the target EGFR L858R/T790M/C797S (Homo sapiens, UniProt P00533, C797S/L858R/T790M). Nature of the assay: HTRF-based EGFR biochemical assay, L858R/T790M/C797S. As to conditions: 100 μM ATP, enzyme 0.02 nM. The method, then:
(§1) EGFR biochemical activity measurements were carried out using the homogeneous time-resolved fluorescence (HTRF) assay (Cisbio). Inhibitors and DMSO normalizations were first dispensed to empty black low-volume 384-well plates (Corning) with D300 digital liquid dispenser (HP). All reactions were carried out at room temperature and solutions were added to plates with a Multidrop Combi Reagent Dispenser (ThermoFisher). The reaction mixture (10 μL final volume) contained 1 μM tyrosine kinase peptide-biotin substrate and mutant EGFR in a reaction buffer (50 mM HEPES pH 7.0, 5 mM MgCl2, 1 mM MnCl2, 0.01% BSA, 2 mM TCEP, 0.1 mM NaVO4). […] Enzyme reaction solution (2× concentrations, 5 μL) was added to 384-well plates containing compounds and incubated for 30 mins. Enzyme reactions were initiated with the addition of 5 μL of ATP to a final concentration of 100 μM and reacted for 20 mins.

Assay [3] addresses EGFR L858R/T790M (Homo sapiens, UniProt P00533, L858R/T790M). Nature of the assay: HTRF-based EGFR biochemical assay, L858R/T790M. Conditions: 100 μM ATP, enzyme 0.02 nM. The method, then: as §1
Assay [4] deals with EGFR L858R (Homo sapiens, UniProt P00533, L858R). Nature of the assay: HTRF-based EGFR biochemical assay, L858R. As to conditions: 100 μM ATP, enzyme 0.1 nM. As to the method:
as §1

Assay [5] has as its target EGFR L858R/T790M/C797S Ba/F3 cells (Homo sapiens, UniProt P00533, T790M/C797S/L858R, cells depend on it). As to the kind of experiment: Ba/F3 cell proliferation (Cell Titer Glo), L858R/T790M/C797S. Type of assay: cell-based, murine. Conditions: Ba/F3, 72 hours, value in parentheses, meaning not explained, read-out: L858R/T790M/C797S, inhibition of growth (value in parentheses). The method, then: (§2) 100 units/mL streptomycin. The EGFR I941R mutation was introduced via site directed mutagenesis using the Quick Change Site-Directed Mutagenesis kit (Stratagene; La Jolla, CA) according to the manufacturer's instructions. All constructs were confirmed by DNA sequencing. The constructs were shuttled into the retroviral vector JP1540 using the Cre-recombination system (Agilent Technologies, Santa Clara, CA). […] Stable clones were obtained by selection in puromycin (2 μg/ml).
(§3) Growth and inhibition of growth was assessed by the Cell Titer Glo assay (Promega, Madison, WI) and was performed according to the manufacturer's instructions. The Cell Titer Glo assay is a luminescence-based method used to determine the number of viable cells based on quantitation of the ATP present, which is directly proportional to the amount of metabolically active cells present. […] All experimental points were set up in triplicates in 384-well plates and all experiments were repeated at least three times. […] The curves were fitted using a non-linear regression model with a sigmoidal dose response.
Background: Cellular ATP, detected with luciferase, serves as a proxy for viable cell number.

Assay [6] has as its target WT EGFR Ba/F3 cells (Homo sapiens, UniProt P00533, cells depend on it, form not given). As to the kind of experiment: Ba/F3 cell proliferation (Cell Titer Glo), WT. Conditions: Ba/F3, 72 hours, value in parentheses, meaning not explained, read-out: WT, inhibition of growth (value in parentheses). The assay is classed as cell-based, murine. As to the method:
as §2, §3

For assay [7], the target named is EGFR L858R Ba/F3 cells (Homo sapiens, UniProt P00533, L858R, cells depend on it). Nature of the assay: Ba/F3 cell proliferation (Cell Titer Glo), L858R. Conditions: Ba/F3, 72 hours, value in parentheses, meaning not explained, read-out: L858R, inhibition of growth (value in parentheses). The assay is classed as cell-based, murine. As to the method: as §2, §3
Assay [8] has as its target EGFR L858R/T790M Ba/F3 cells (Homo sapiens, UniProt P00533, T790M/L858R, cells depend on it). Nature of the assay: Ba/F3 cell proliferation (Cell Titer Glo), L858R/T790M. Type of assay: cell-based, murine. Conditions: Ba/F3, 72 hours, value in parentheses, meaning not explained, read-out: L858R/T790M, inhibition of growth (value in parentheses). The method, then:
as §2, §3

Each structure is given as a SMILES string.

Chain of EGFR L858R/T790M Ba/F3 cells (P00533 whole entry T790M/L858R): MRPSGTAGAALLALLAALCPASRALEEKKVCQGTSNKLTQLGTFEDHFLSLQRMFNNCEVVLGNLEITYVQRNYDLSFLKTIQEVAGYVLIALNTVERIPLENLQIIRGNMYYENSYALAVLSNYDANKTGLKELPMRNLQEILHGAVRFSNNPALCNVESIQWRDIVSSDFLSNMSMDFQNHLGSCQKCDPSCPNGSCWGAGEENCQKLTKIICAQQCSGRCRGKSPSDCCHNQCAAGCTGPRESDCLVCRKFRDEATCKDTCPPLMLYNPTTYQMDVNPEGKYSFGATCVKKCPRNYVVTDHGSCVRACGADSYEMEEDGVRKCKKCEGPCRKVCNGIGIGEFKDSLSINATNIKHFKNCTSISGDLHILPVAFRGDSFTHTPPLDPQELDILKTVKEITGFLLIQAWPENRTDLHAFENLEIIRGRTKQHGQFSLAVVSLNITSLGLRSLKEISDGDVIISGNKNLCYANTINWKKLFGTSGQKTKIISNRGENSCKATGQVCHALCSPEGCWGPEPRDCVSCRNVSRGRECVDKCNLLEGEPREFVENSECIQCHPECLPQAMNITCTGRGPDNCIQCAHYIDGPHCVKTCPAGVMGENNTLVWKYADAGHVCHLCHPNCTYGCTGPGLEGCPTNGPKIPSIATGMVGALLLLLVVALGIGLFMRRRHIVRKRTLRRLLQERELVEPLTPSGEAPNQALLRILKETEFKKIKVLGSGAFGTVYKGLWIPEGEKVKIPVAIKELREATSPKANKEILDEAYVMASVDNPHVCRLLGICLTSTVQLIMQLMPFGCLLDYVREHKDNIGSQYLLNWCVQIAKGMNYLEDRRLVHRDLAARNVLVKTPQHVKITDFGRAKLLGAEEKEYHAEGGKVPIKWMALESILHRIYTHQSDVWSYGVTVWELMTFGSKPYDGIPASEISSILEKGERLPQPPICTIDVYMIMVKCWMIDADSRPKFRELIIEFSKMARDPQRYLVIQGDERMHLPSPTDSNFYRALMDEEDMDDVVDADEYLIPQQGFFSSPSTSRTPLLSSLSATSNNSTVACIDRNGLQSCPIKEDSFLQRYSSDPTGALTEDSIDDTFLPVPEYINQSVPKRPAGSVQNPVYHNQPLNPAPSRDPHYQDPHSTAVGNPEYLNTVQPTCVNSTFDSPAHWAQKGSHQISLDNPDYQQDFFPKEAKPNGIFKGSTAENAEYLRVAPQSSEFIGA
Chain of EGFR L858R/T790M/C797S (P00533 25-1210 T790M/C797S/L858R): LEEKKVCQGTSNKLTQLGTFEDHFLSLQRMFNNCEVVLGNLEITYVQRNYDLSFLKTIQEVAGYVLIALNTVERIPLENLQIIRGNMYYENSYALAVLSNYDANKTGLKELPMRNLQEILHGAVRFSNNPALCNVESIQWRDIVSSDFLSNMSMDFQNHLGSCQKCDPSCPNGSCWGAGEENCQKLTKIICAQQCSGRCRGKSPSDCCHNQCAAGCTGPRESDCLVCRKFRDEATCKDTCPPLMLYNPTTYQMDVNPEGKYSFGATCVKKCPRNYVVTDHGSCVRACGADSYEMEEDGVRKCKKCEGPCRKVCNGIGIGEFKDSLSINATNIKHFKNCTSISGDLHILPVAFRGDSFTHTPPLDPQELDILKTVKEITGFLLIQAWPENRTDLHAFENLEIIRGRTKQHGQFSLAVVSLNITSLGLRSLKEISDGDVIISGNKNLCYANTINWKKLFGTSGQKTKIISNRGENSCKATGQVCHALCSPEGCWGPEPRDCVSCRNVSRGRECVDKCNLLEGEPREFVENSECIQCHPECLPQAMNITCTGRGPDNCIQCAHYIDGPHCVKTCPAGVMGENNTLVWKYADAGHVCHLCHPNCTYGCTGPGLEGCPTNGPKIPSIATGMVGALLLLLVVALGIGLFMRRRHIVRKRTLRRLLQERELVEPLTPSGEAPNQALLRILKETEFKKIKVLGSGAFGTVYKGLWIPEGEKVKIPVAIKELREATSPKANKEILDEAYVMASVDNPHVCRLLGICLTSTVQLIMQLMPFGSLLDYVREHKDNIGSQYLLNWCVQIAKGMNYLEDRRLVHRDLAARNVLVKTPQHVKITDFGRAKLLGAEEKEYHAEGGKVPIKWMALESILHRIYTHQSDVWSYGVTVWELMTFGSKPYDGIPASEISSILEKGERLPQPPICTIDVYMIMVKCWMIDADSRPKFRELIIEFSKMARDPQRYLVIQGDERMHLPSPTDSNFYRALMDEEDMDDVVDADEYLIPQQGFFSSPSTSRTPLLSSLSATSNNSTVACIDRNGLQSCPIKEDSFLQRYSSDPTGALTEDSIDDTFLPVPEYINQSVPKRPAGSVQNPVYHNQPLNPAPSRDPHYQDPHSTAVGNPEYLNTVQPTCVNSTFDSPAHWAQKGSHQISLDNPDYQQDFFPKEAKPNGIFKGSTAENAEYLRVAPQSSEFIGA
Chain of EGFR L858R/T790M/C797S Ba/F3 cells (P00533 whole entry T790M/C797S/L858R): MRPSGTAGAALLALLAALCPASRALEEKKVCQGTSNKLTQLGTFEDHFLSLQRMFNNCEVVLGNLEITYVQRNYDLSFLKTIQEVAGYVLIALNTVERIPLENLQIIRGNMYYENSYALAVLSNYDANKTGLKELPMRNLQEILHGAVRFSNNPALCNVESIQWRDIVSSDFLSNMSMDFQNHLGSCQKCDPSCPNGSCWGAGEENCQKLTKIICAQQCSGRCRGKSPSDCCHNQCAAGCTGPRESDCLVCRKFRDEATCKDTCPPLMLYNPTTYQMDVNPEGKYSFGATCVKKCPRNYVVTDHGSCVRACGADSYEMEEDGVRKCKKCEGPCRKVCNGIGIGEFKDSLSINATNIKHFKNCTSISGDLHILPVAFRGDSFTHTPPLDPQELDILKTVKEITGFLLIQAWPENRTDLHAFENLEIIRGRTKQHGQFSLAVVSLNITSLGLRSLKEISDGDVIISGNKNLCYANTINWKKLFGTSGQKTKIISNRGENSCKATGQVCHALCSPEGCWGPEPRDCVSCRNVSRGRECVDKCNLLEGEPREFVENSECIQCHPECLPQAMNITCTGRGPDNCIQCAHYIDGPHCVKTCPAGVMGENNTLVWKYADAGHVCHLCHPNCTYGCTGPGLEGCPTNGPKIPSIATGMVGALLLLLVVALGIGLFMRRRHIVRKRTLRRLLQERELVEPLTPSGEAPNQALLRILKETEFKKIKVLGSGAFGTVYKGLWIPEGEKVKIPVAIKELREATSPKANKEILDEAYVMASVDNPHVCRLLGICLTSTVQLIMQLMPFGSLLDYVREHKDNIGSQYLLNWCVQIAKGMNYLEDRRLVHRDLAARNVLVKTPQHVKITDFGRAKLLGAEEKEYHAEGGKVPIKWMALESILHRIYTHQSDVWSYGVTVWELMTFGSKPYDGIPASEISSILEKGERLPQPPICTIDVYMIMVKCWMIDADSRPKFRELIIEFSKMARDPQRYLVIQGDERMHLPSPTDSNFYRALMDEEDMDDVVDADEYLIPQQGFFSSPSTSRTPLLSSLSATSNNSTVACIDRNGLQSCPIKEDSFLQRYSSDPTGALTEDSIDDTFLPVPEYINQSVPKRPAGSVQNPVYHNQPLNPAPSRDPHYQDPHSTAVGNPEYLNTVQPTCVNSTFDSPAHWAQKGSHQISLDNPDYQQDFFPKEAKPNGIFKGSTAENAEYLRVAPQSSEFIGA
Chain of EGFR L858R (P00533 25-1210 L858R): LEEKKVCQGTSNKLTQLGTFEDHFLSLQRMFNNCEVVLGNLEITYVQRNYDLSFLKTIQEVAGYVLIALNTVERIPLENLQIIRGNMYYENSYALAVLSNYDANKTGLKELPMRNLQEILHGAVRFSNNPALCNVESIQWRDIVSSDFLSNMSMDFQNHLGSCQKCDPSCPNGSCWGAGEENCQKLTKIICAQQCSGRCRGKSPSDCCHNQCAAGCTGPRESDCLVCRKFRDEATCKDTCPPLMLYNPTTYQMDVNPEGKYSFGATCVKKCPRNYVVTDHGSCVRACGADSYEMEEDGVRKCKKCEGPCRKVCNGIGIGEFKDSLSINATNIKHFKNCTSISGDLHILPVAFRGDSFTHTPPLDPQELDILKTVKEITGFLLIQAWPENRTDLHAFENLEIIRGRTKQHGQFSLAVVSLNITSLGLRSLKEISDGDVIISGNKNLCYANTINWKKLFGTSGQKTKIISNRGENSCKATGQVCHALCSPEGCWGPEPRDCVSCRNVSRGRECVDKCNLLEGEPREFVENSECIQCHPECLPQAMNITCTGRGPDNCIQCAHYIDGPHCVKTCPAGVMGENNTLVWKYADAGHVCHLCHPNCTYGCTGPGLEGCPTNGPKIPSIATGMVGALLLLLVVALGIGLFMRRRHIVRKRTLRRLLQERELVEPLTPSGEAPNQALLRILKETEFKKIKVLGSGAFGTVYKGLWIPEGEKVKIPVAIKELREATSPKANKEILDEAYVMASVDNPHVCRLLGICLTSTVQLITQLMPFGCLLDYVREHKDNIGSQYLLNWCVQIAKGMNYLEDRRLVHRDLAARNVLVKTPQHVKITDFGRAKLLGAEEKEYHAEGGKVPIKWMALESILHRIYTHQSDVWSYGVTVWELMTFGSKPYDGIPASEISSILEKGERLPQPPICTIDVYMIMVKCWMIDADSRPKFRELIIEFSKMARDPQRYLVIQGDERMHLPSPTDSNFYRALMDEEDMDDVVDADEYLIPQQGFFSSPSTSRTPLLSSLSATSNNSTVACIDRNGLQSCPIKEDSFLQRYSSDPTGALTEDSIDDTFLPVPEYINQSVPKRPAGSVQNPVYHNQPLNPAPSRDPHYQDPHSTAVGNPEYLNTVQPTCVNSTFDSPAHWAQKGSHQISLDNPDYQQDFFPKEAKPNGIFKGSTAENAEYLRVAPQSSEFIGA

A word on the IC50: it is the point on the concentration scale where inhibition reaches its midpoint. For the molecule `CSc1nc(-c2ccnc(NC(C)=O)c2)c(-c2cccc(NC(=O)c3c(F)ccc(O)c3CN3Cc4ccccc4C3=O)c2)n1C` [Compound 059, N-(3-(4-(2-acetamidopyridin-4-yl)-1-methyl-2-(methylthio)-1H-imidazol-5-yl)phenyl)-6-fluoro-3-hydroxy-2-((1-oxoisoindolin-2-yl)methyl)benzamide], the IC50 is more than 100 µM in assay [1], more than 100 µM in assay [2], more than 100 µM in assay [3] and 3.07 µM in assay [4].

Consider `CSc1nc(-c2cc(NC(=O)c3c(F)cccc3F)cs2)c(-c2ccnc(NC(C)=O)c2)[nH]1` [Compound 011, N-(5-(5-(2-acetamidopyridin-4-yl)-2-(methylthio)-1H-imidazol-4-yl)thiophen-3-yl)-2,6-difluorobenzamide], for which the IC50 in assay [3] and in assay [4] was more than 100 µM throughout.

In the case of `CSc1nc(-c2cccc(NC(=O)Nc3ccccc3)c2)c(-c2ccnc(NC(C)=O)c2)[nH]1` [Compound 020, N-(4-(2-(methylthio)-4-(3-(3-phenylureido)phenyl)-1H-imidazol-5-yl)pyridin-2-yl)acetamide], the IC50 in assay [3] and in assay [4] was more than 100 µM throughout.

Turning to `CSc1nc(-c2ccccc2NC(=O)c2cc(C)cs2)c(-c2ccnc(NC(C)=O)c2)[nH]1` [Compound 026, N-(2-(5-(2-acetamidopyridin-4-yl)-2-(methylthio)-1H-imidazol-4-yl)phenyl)-4-methyl-thiophene-2-carboxamide], the half-maximal inhibitory concentration (IC50) in assay [3] and in assay [4] was more than 100 µM throughout.

For the molecule `CSc1nc(-c2ccccc2NC(=O)c2ccccc2O)c(-c2ccnc(NC(C)=O)c2)[nH]1` [Compound 032, N-(2-(5-(2-acetamidopyridin-4-yl)-2-(methylthio)-1H-imidazol-4-yl)phenyl)-2-hydroxybenzamide], the IC50 in assay [3] and in assay [4] was more than 100 µM throughout.

Consider `CSc1nc(-c2cccc3c2CCC3NC(=O)c2cccc3[nH]ccc23)c(-c2ccnc(NC(C)=O)c2)[nH]1` (centres unmarked) [Compound 056, N-(4(5-(2-acetamidopyridin-4-yl)-2-(methylthio)-1H-imidazol-4-yl)-2,3-dihydro-1H-inden-1-yl)-1H-indole-4-carboxamide], for which the IC50 in assay [3] and in assay [4] was more than 100 µM throughout.

On to `CSc1nc(-c2cccc(NC(=O)c3cc(O)ccc3F)c2)c[nH]1` [Compound 060], for which the IC50 in assay [1], in assay [2] and in assay [3] was more than 100 µM throughout.

With `CSc1nc(-c2ccccc2NC(=O)C2CCCC2)c(-c2ccnc(NC(C)=O)c2)[nH]1` [Compound 022, N-(2(5-(2-acetamidopyridin-4-yl)-2-(methylthio)-1H-imidazol-4-yl)phenyl)cyclopentane-carboxamide], the IC50 in assay [3] and in assay [4] was more than 100 µM throughout.

`CSc1nc(-c2cccc(NC(=O)c3c(F)ccc(O)c3CN3C(=O)c4ccccc4C3=O)c2)c(-c2ccnc(Nc3ccccc3)c2)[nH]1` [Compound 068, 2-((1,3-dioxoisoindolin-2-yl)methyl)-6-fluoro-3-hydroxy-N-(3-(2-(methylthio)-5-(2-(phenylamino)pyridin-4-yl)-1H-imidazol-4-yl)phenyl)benzamide]: the EC50 in assay [5] was more than 10 µM; in assay [6], more than 5.6 µM; in assay [7], more than 10 µM; in assay [8] it was more than 10 µM.

Consider `CSc1nc(-c2ccccc2NC(=O)c2ccco2)c(-c2ccnc(NC(C)=O)c2)[nH]1` [Compound 027, N-(2-(5-(2-acetamidopyridin-4-yl)-2-(methylthio)-1H-imidazol-4-yl)phenyl)furan-2-carboxamide], for which the IC50 in assay [3] and in assay [4] was more than 100 µM each time.

As to `CSc1nc(-c2cccc(NC(=O)c3ccccc3CN3Cc4ccccc4C3=O)c2)c(-c2ccnc(Nc3ccccc3)c2)[nH]1` [Compound 069, N-(3-(2-(methylthio)-5-(2-(phenylamino)pyridin-4-yl)-1H-imidazol-4-yl)phenyl)-2-((1-oxoisoindolin-2-yl)methyl)benzamide], the EC50 in assay [5] was more than 10 µM; in assay [6], more than 2.1 µM; in assay [7], more than 5.3 µM; in assay [8], more than 5.6 µM.

`CSc1nc(-c2cccc(NC(=O)C3CC3)c2)c(-c2ccnc(NC(C)=O)c2)[nH]1` [Compound 003, N-(3-(5-(2-acetamidopyridin-4-yl)-2-(methylthio)-1H-imidazol-4-yl)phenyl)cyclopropane-carboxamide]: the IC50 came out at 14.5 µM in assay [3] and 4.23 µM in assay [4].

`CSc1nc(-c2cccc(NC(=O)c3c(F)ccc(O)c3CN3Cc4ccccc4C3=O)c2)c[nH]1` [Compound 058, 6-fluoro-3-hydroxy-N-(3-(2-(methylthio)-1H-imidazol-4-yl)phenyl)-2-((1-oxoisoindolin-2-yl)methyl)benzamide]: the IC50 in assay [1], in assay [2], in assay [3] and in assay [4] was more than 100 µM throughout.

In the case of `CSc1nc(-c2cccc3c2CCC3NC(=O)c2c(F)cccc2F)c(-c2ccnc(NC(C)=O)c2)[nH]1` (centres unmarked) [Compound 055, N-(4-(5-(2-acetamidopyridin-4-yl)-2-(methylthio)-1H-imidazol-4-yl)-2,3-dihydro-1H-inden-1-yl)-2,6-difluorobenzamide], the IC50 in assay [3] and in assay [4] was more than 100 µM each time.

Turning to `CSc1nc(-c2cccc(NC(=O)c3c(F)cccc3F)c2)c(-c2ccnc(Nc3ccccc3)c2)[nH]1` [Compound 010, 2,6-difluoro-N-(3-(2-(methylthio)-5-(2-(phenylamino)pyridin-4-yl)-1H-imidazol-4-yl)phenyl)benzamide], the figures for the IC50 in assay [1], in assay [3] and in assay [4] were 0.015 µM, 2.38 µM and 0.032 µM, respectively.

Turning to `CSc1nc(-c2cccc3c2CCC3NC(=O)c2cc(F)cc(F)c2)c(-c2ccnc(NC(C)=O)c2)[nH]1` (centres unmarked) [Compound 057, N-(4-(5-(2-acetamidopyridin-4-yl)-2-(methylthio)-1H-imidazol-4-yl)-2,3-dihydro-1H-inden-1-yl)-3,5-difluorobenzamide], the IC50 in assay [3] and in assay [4] was more than 100 µM each time.

In the case of `CSc1nc(-c2ccc(F)c(NC(=O)Cc3c(F)cccc3F)c2)c(-c2ccnc(NC(C)=O)c2)[nH]1` [Compound 052, N-(5-(5-(2-acetamidopyridin-4-yl)-2-(methylthio)-1H-Imidazol-4-yl)-2-fluorophenyl)-2-(2,6-difluorophenyl)acetamide], the IC50 in assay [3] turned out to be 1.89 µM; in assay [4], 0.969 µM.

With `CSc1nc(-c2ccccc2NC(=O)CCc2ccccc2)c(-c2ccnc(NC(C)=O)c2)[nH]1` [Compound 033, N-(2(5-(2-acetamidopyridin-4-yl)-2-(methylthio)-1H-Imidazol-4-yl)phenyl)-3-phenylpropanamide], the IC50 in assay [3] and in assay [4] was more than 100 µM throughout.

With `CSc1nc(-c2cccc(NC(=O)c3ccccc3CN3C(=O)c4ccccc4C3=O)c2)c(-c2ccnc(Nc3ccccc3)c2)[nH]1` [Compound 067, 2-((1,3-dioxoisoindolin-2-yl)methyl)-N-(3-(2-(methylthio)-5-(2-(phenylamino)pyridin-4-yl)-1H-imidazol-4-yl)phenyl)benzamide], the EC50 in assay [5] is more than 10 µM; in assay [6], more than 3.3 µM; in assay [7] it was more than 8.7 µM; in assay [8] it was more than 10 µM.

(Values after patent US20230406838A1, “MUTANT SELECTIVE EGFR INHIBITORS AND METHODS OF USE THEREOF” (Dana-Farber Cancer Institute, Inc., priority 2020, published 2023).)
